In ChEMBL document CHEMBL4622872, “Discovery of DS-1971a, a Potent, Selective NaV1.7 Inhibitor” (J Med Chem, 2020):
Values after ≈ are worked out from the molar mass of the structure shown.

Tests used:
[1] = Distribution coefficient, log D of the compound in 1-octanol and PBS buffer at pH 7.4 measured after 30 mins by LC-MS analysis; format: physicochemical; conditions: 1-octanol/PBS buffer
[2] = Aqueous thermodynamic solubility of the compound at pH 6.8 measured after 4 hrs by UV-HPLC analysis; format: physicochemical; conditions: buffer, pH 6.8; read-out: Therm_solubility
[3] = Stability of the compound in mouse liver microsomes assessed as parent compound remaining measured after 0.5 hrs; format: ADME, Microsome; conditions: mouse liver microsomes, read-out: Stability

logD at 0.5 h [1]	solubility thermodynamic at 4 h [2] [µM]	remaining at 0.5 h [3] [%]	Compound
0.1	1800 (≈ 809 µg/mL)	77	Cn1nccc1[C@H]1CCCC[C@@H]1Oc1cc(F)c(S(=O)(=O)Nc2ccncn2)c(F)c1 (racemic)
0.4	550 (≈ 240 µg/mL)	82	Cn1nccc1[C@H]1CCC[C@@H]1Oc1ccc(S(=O)(=O)Nc2ccncn2)c(F)c1F (racemic)
